Structures can show the parent of a compound that is named as a salt.
Assay: RP, Waters ACQUITY UPLC BEH C18, 100 × 2.1 mm, 1.7 µm; A: water + 0.1% formic acid, pH 3; B: 80% acetonitrile + 20% acetone + 0.1% formic acid, pH 3; gradient (min/%B) 0/0 6/100
Details: stereoisomer not certain

LC retention time	Compound
1.51 min	CC(O)C(C)C(=O)O (stereo unspecified) [3-Hydroxy-2-methylbutyric acid]
0.6 min	O=C(O)CC(NC(=O)C1CCC(=O)N1)C(=O)O (stereo unspecified) [pglu-asp]
0.641 min	Nc1ccc(OS(=O)(=O)O)cc1 [4-Aminophenyl hydrogen sulfate]
1.4 min	CC[C@@H](O)C(=O)[O-] [(R)-2-hydroxybutyric acid]
0.6 min	CCC(C)C(NC(=O)C(N)CC(=O)O)C(=O)O (stereo unspecified) [asp-ile]
1.74 min	CC(C)C1NC(=O)C2CCCN2C1=O (stereo unspecified) [Cyclic(pro-val)]
1.71 min	CCC(C)C1NC(=O)C(CCC(=O)O)NC1=O (stereo unspecified) [Cyclic(glu-ile)]
1.8 min	CCC(C)C1NC(=O)C(C)NC1=O (stereo unspecified) [Cyclic(ala-ile)]
1.34 min	Nc1ccccc1C(=O)CC(N)C(=O)O (stereo not drawn) [l-kynurenine]
1.61 min	CC(=O)C(C)C(=O)O (stereo unspecified) [2-methylacetoacetic acid]
0.906 min	CC(C)C(N)C(=O)NC(CCC(=O)O)C(=O)O (stereo unspecified) [val-glu]
1.35 min	CCC(=O)OC(CC(=O)[O-])C[N+](C)(C)C (stereo unspecified) [propionylcarnitine chloride]
0.6 min	CC(C)CC(N)C(=O)NC(CC(=O)O)C(=O)O (stereo unspecified) [leu-asp]
1.5 min	CC(C)C1NC(=O)C(CCC(=O)O)NC1=O (stereo unspecified) [Cyclic(glu-val)]
2.39 min	CC(C)C1NC(=O)C(Cc2ccccc2)NC1=O (stereo unspecified) [Cyclic(phe-val)]
1.68 min	CC(C)CC1NC(=O)C(CC(=O)O)NC1=O (stereo unspecified) [Cyclic(asp-leu)]
3.19 min	CC12CCc3occc3C1CCC13CC(CCC12)C(O)(CO)C3 (stereo unspecified) [Cafestol (10x dilute)]
1.83 min	CCC(C)C(NC(=O)C1CCC(=O)N1)C(=O)O (stereo unspecified) [pglu-ile]
0.6 min	CC(O)C(NC(=O)C1CCCN1)C(=O)O (stereo unspecified) [pro-thr]
2.31 min	CCC(C)C1NC(=O)C(C(C)C)NC1=O (stereo unspecified) [Cyclic(ile-val)]
5.62 min	CCC=CCC=CCC=CCC=CCC=CCCCC(=O)OCC(COP(=O)([O-])OCC[N+](C)(C)C)OC(=O)CCCC=CCC=CCC=CCC=CCC=CCC (stereo unspecified) [PC(20:5/20:5)]
0.6 min	CCC(C)C(NC(=O)CC(N)C(=O)O)C(=O)O (stereo not drawn) [beta-asp-ile]

LC retention time	Compound
0.6 min	CCC(C)C(N)C(=O)NC(CC(=O)O)C(=O)O (stereo unspecified) [ile-asp]
0.596 min	CS(=O)CCC(N)C(=O)O (stereo not drawn) [dl methine sulfoxide]
3.84 min	CC(CCC(=O)NCCS(=O)(=O)O)C1CCC2C3CCC4CC(O)CCC4(C)C3CCC12C (stereo unspecified) [taurolithocholic acid]
1.62 min	CCCC(=O)C(=O)O [2-Oxovaleric acid]
4.66 min	CCCCCCCCCCCCCCCC(=O)OCC(COP(=O)([O-])OCC[N+](C)(C)C)OC(=O)CCCCCCCC(=O)O (stereo unspecified) [PAZ-PC]
0.595 min	Cc1ncc(C[n+]2csc(CCOP(=O)(O)O)c2C)c(N)n1 [Thiamine monophosphate Cloride dihydrat]
1.69 min	CC(C)C(O)C(=O)O (stereo unspecified) [2-Hydroxy-3-methylbutyric acid]
2.13 min	O=C(O)CNC(=O)C=Cc1c[nH]c2ccccc12 [INDOLE-3-ACRYLOYLGLYCINE]
4.52 min	CCCCCCCCCCCCCCCC(=O)OCC(COP(=O)([O-])OCC[N+](C)(C)C)OC(=O)CCCC(=O)O (stereo unspecified) [PGPC]
0.884 min	O=C(O)CCC1NC(=O)C(CC(=O)O)NC1=O (stereo unspecified) [Cyclic(asp-glu)]
1.61 min	O=C(O)Cc1c[nH]c2ccc(O)cc12 [5-hydroxyindole-3-acetic acid]
1.32 min	CC(C)C(NC(=O)C(N)CCC(=O)O)C(=O)O (stereo unspecified) [glu-val]
0.6 min	CC(C)CC(NC(=O)C(N)CC(=O)O)C(=O)O (stereo unspecified) [asp-leu]
1.78 min	CC(O)CC(=O)[O-] (stereo not drawn) [beta-hydroxybutyric acid]
1.7 min	CC(C)C(N)C(=O)NC(Cc1ccccc1)C(=O)O (stereo unspecified) [Val-Phe]
1.02 min	OCC(O)c1ccc(O)c(O)c1 (stereo unspecified) [3,4-dihydroxyphenyl glycol]
1.69 min	O=C(O)CCc1ccc(O)c(O)c1 [3,4-dihydroxyhydrocinnamic acid]
1.54 min	NC(Cc1ccccc1)C(=O)NC(CC(=O)O)C(=O)O (stereo unspecified) [phe-asp]
4.95 min	CCCCCCCCCCCCCCCCC=COCC(O)COP(=O)([O-])OCC[N+](C)(C)C (stereo unspecified)
0.798 min	CC(C)C(N)C(=O)O (stereo unspecified) [Valine]
1.43 min	O=C(O)CCC1NC(=O)C2CCCN2C1=O (stereo unspecified) [Cyclic(glu-pro)]
1.45 min	CC(C)C(=O)C(=O)O [Alpha-ketoisovaleric acid]

LC retention time	Compound
4.02 min	CCC=CCC=CCC=CCC=CCC=CCCCC(=O)OCC(O)COP(=O)([O-])OCC[N+](C)(C)C (stereo unspecified) [LPC(20:5)_enz]
4.33 min	CC(O)C1CCC2C3CCC4CC(=O)CCC4(C)C3CCC12C (stereo not drawn) [20-beta-Hydroxy-5-alpha-pregnan-3-one]
1.99 min	CC(C)CC(=O)C(=O)O [2-Oxo-4-methylpentanoic acid]
4.86 min	CCCCCCCCCCCCCCCCOCC(COP(=O)([O-])OCC[N+](C)(C)C)OC(=O)CCCCCCCC(=O)O (stereo unspecified) [Azelaoyl PAF 10 ug/ml]
1.4 min	CC(CO)C(=O)O (stereo not drawn) [beta-hydroxyisobutyric acid]
1.4 min	CC(C)(O)C(=O)O [alpha-hydroxyisobutyric acid]
2.41 min	COc1ccc(O)c(C(=O)O)c1 [5-methoxysalicylic acid]
1.63 min	CCC(C)(O)C(=O)O (stereo unspecified) [2-Hydroxy-2-methylbutyric acid]
1.86 min	CC(C)CC1NC(=O)C(C)NC1=O (stereo unspecified) [Cyclic(ala-leu)]
2.27 min	O=Cc1c[nH]c2ccccc12 [indole-3-carbaldehyde]
0.6 min	CC(C)CC(NC(=O)CC(N)C(=O)O)C(=O)O (stereo not drawn) [beta-asp-leu]
0.58 min	CNC(CC(=O)O)C(=O)O (stereo unspecified) [N-methyl-aspartic acid]
1.86 min	CCC(C)C(=O)C(=O)O (stereo unspecified) [2-Oxo-3-methylpentanoic acid]
1.89 min	CC(C)CC(NC(=O)C1CCC(=O)N1)C(=O)O (stereo unspecified) [pglu-leu]
1.65 min	CCC(C)C1NC(=O)C(CC(=O)O)NC1=O (stereo unspecified) [Cyclic(asp-ile)]
1.63 min	CC(C)C(NC(=O)C(N)Cc1ccccc1)C(=O)O (stereo unspecified) [Phe-Val]
2.65 min	CC12C=CC(=O)C=C1CCC1C2C(O)CC2(C)C1CCC2(O)C(=O)CO (stereo unspecified) [Prednisolone]
3.04 min	CC12CCC(=O)C=C1CCC1C2CCC2(C)C1CCC2(O)C(=O)CO (stereo unspecified) [11-Deoxy-17-hydroxycorticosterone]
1.79 min	COc1cc(C(=O)O)cc(OC)c1O [syringic acid]
0.641 min	Nc1ccc(O)cc1 [4-aminophenol]
1.57 min	CC(C)C(NC(=O)C1CCC(=O)N1)C(=O)O (stereo unspecified) [pglu-val]

Compound	LC retention time
O=C(O)CCCO [gamma-hydroxybutyric acid]	1.07 min
CCCCCCCCCCCCCCCC(=O)OCC(COP(=O)([O-])OCC[N+](C)(C)C)OC(=O)CCCC=O (stereo unspecified) [POV-PC 10 ug/ml]	4.66 min
O=C(O)CNC(=O)c1cccnc1 [Nicotinuric acid]	1.35 min
CCCCCC=CCC=CCCCCCCCC(=O)OCC(O)COP(=O)([O-])OCC[N+](C)(C)C (stereo unspecified) [LPC(18:2)_enz]	4.25 min

Assay: RP, Waters ACQUITY UPLC HSS T3, 100 × 2.1 mm, 1.8 µm; A: water + 0.1% formic acid, pH 3; B: 30% methanol + 70% acetonitrile + 0.1% formic acid, pH 3; gradient (min/%B) 0.0/5 1.0/8 2.0/15 3.0/40 4.0/70 4.5/100 5.0/100 6.4/100 6.6/5.0 6.8/5.0 7.0/5.0
Details: stereoisomer not certain

LC retention time	Compound
3.81 min	CC12C=Cc3occc3C1CCC13CC(CCC12)C(O)(CO)C3 (stereo unspecified) [kahweol]
3.63 min	O=C(O)Cc1c[nH]c2ccccc12 [3-indoleacetic acid]
4.81 min	CCCCCCCCC=CCCCCCCCC(N)=O [oleamide]
3.75 min	O=c1cc(-c2ccc(O)c(O)c2)oc2cc(O)cc(O)c12 [luteolin]
3.81 min	C=C(C)C1CC=C(C(=O)O)CC1 (stereo unspecified) [perillic acid]
0.712 min	NCCc1ccc(O)c(O)c1 [dopamine]
3.41 min	Cc1ccccc1C(=O)NCC(=O)O [2-methylhippuric acid]
0.483 min	OCC(O)C(O)C(O)C(O)CO (stereo not drawn) [d(-)-mannitol]
0.829 min	O=C(O)C(O)c1ccc(O)c(O)c1 (stereo unspecified) [dihydroxymandelic acid]
0.62 min	O=C(O)C1CCCCN1 (stereo unspecified) [pipecolinic acid]
4.08 min	CCCc1oc(CCC(=O)O)c(C(=O)O)c1C [cmpf]
1.25 min	Cn1cnc2[nH]c(=O)[nH]c(=O)c21 [7-methylxanthine]
4.34 min	CC(CCC(=O)NCC(=O)O)C1CCC2C3C(O)CC4CC(OC5OC(C(=O)O)C(O)C(O)C5O)CCC4(C)C3CCC12C (stereo unspecified) [glycochenodeoxycholic acid 3-glucuronide]
2.81 min	O=C(O)C1OC(Oc2ccccc2O)C(O)C(O)C1O (stereo unspecified) [Pyrocatechol glucuronide]
0.498 min	C[NH+]1CC(O)CC1C(=O)[O-] (stereo unspecified) [n-methyl-4-hydroxyproline]
0.457 min	C[N+](C)(C)CC(O)CC(=O)[O-] (stereo not drawn) [l-carnitine inner salt]
3.46 min	O=C(Cc1c[nH]c2ccccc12)OC1OC(C(=O)O)C(O)C(O)C1O (stereo unspecified) [indole-3-acetic acid-glucuronide]
3.38 min	O=C(O)CNC(=O)Cc1ccccc1 [phenylacetylamino-acetic acid]
0.638 min	C=CCS(=O)CC(N)C(=O)O (stereo unspecified) [aliin]

Compound	LC retention time
CS(=O)CCCN=C=S (stereo unspecified) [iberin]	3.24 min
CC12CCC(=O)C=C1CCC1C2CCC2(C)C(O)CCC12 (stereo unspecified) [testosterone]	4.32 min
CC12CCC3C(CCC4CC(=O)CCC43C)C1CCC2O (stereo unspecified)	4.47 min
